Assay [1] has as its system somatic embryos of Norway spruce, cell line 06:28:05. Put plainly: Mature embryos left 12 days in maturation medium with 0.25 M inositol after particle bombardment (Example 1). Format: cell-based. An excerpt:
The aim of the experiment was to infect somatic embryos of Norway spruce with a virus using a particle gun according to a routine method (Clapham et al. 2000: Scand. J. For. Res. 15:151-160) and derive plants containing the virus. The original standard bombardment procedure was developed for the transformation of embryogenic cultures consisting of immature embryos (i.e. proembryonic masses or PEMs). In the original protocol, from one to two hours before bombardment with gold particles coated with DNA, the cells are temporarily plasmolyzed with 0.25 M myo-inositol in proliferation medium (Table 4) to reduce damage from the penetration of the gold particles.
In the present experiment, mature embryos instead of PEMs were bombarded. The cultures of cell line 06:28:05, had been matured on standard DKM medium containing ABA for 50, days before bombardment. The embryos were exposed to medium containing 0.25, M inositol for 1-2, hours before bombardment. After bombardment the cells were unintentionally left in maturation medium containing 0.25, M inositol for 12, days, then returned to standard DKM medium containing ABA. […] About 50 plantlets with more or less well developed roots were planted out at once in pots containing mineral wool, which is not usually possible; fifteen of these survived and continued to grow. Sixty-two additional plantlets were grown aseptically on solid standard germination medium (quarter strength Schenk and Hildebrandt) to develop the root system for about 2, months; 51, of these grew well enough to plant out in pots of mineral wool. At least 48, of the plants were growing vigorously a month later. The appearance of these somatic embryo-derived plants encouraged the inventors to believe that mature embryos exposed to the relatively high concentration of inositol in the present experiment were of unusually high quality and ready for germination, without partial drying under high humidity for 2-3, weeks as in the standard procedure.

Assay [2] has as its system embryogenic callus of Scots pine, Pinus sylvestris, cell-line 42:6:3. Put plainly: Inositol concentration series on DCR maturation medium and germination on DKM (Example 6). Format: cell-based. An excerpt: In order to verify the broad use of the newly invented method, additional conifers have been tested by adapting the methods of Examples 4, and 5. Embryogenic callus of Scots pine, Pinus sylvestris, cell-line 42:6:3, was proliferated on DCR medium (Burg et al. 2007:, J. Exp. Bot. 58: 687-698) containing 2,4-D and BA at the same concentrations as described for spruce. The cells were taken through the early maturation step on DCR medium containing 7.5% polyethylene glycol 400, 3% maltose (replacing sucrose) and 16, mg per liter abscisic acid (Burg et al. 2007:, J. Exp. Bot. 58: 687-698). Samples of cells were then exposed to the same medium containing inositol at concentrations of 0.0005, M 0.1, M, 0.2, M, 0.25, M, 0.3, M or 0.5 M for four weeks. […] Somatic embryogenesis is more problematic in pine than in spruce, so that experiments with mature embryos were on a small scale.

Regarding `O[C@H]1[C@H](O)[C@@H](O)[C@H](O)[C@@H](O)[C@H]1O` [inositol, cis-1,2,3,5-trans-4,6-cyclohexanehexol], in assay [1] (0.25 M inositol), the “embryo appearance compared with embryos from the standard protocol” value was “strikingly more uniform and broader in relation to length”. Moreover, in assay [1] (0.25 M inositol 12 days, of about 50 plantlets planted out), the “plantlets that survived and continued to grow after being planted out at once in pots containing mineral wool” value is reported as “fifteen”. The “plantlets that grew well enough to plant out in pots of mineral wool” value in assay [1] (0.25 M inositol 12 days, of sixty-two plantlets grown about 2 months on solid germination medium) was found to be 51. For the same molecule, the “plants growing vigorously a month later” value in assay [1] (0.25 M inositol 12 days, of the 51 planted out in mineral wool) is on record as “At least 48”. Moreover, the “germination after return to standard DKM medium containing ABA” value in assay [1] (0.25 M inositol for 12 days, observed after 8 days on standard DKM+ABA) is “many embryos had germinated and formed healthy well developed small plantlets”. In addition, the “signs of premature germination (hypocotyl extension, greening of cotyledons)” value in assay [2] (0.0005 M and 0.1 M inositol, four weeks) is reported as “some of the embryos showed characteristic signs of premature germination”. Besides, the “maturation and precocious germination” value in assay [2] (0.2-0.3 M inositol, four weeks) is recorded as “precocious germination was inhibited”. Besides, in assay [2] (0.25 M inositol), the “proportion of embryos that developed healthy roots on the germination medium, compared with 0.0005 M” value was “higher proportion” and the “signs of stress (red colour under the cotyledons) within two days of germination on DKM” value is “no such signs of stress”. Moreover, in assay [2] (0.25 M inositol, groups of ten embryos germinated on DKM), the “condition of embryos compared with those exposed to 0.0005 M inositol” value was “in better condition”. In addition, the “effect on further maturation of the embryos” value in assay [2] (0.5 M inositol) was “inhibited further maturation of the embryos”.

The values are drawn from patent US9125352B2, “Method for maturing and synchronizing conifer somatic embryos” (SweTree Technologies AB, priority 2010, dated 2015).
